Measured values from patent publication US20240115676A1, “SILICIFIED TUMOR CELL COMPOSITIONS AND METHODS” (UNM Rainforest Innovations, priority 2020, published 2024).

Key:
[1] = system: BR5-Akt-Luc2 tumors; test: Cisplatin and vaccine combination therapy in late stage ovarian cancer model; assay type: in vivo, FVB mice; conditions: cisplatin 2 mg/kg intraperitoneally Day 9, vaccine Day 10 after tumor challenge
Procedure: Tumor-bearing or naïve female FVB mice were vaccinated intraperitoneally with irradiated (100 Gy at […], 15 mA, 48 Gy/min; or a Cs-137 gamma irradiator with a dose rate of 63 cGy/min) or silicified BR5-Akt (or BR5-Akt-Luc2 for vaccine viability analysis) cells (with TLR ligands as indicated) using doses of 3×10^4, 3×10^5, 3×10^6, or 3×10^7 Si-cells/mouse in 200 μl of PBS at the indicated schedules. Alternatively, mice were vaccinated subcutaneously (SC) with 3×10^6 Si-cells by scruffing the skin at the back of their neck and injecting an equivalent volume into the loose fold of skin. Mice that cleared all tumor cells based on IVIS Spectrum bioluminescent imaging were re-challenged with 2×10^5 BR5-Akt-Luc2 cancer cells at a later date, as indicated for each study. All control (no Tx) mice received sham PBS injections (200 μl/mouse). Single agent or combination therapy with cisplatin used IP administration of cis-diamineplatinum (II) dichloride (Sigma-Aldrich, St. Louis, MO) on Day 9 at 2 mg/kg in physiological saline.
For in vivo monitoring of tumor burden, mice with BR5-Akt-Luc2 tumors were administered 150 mg luciferin/kg by intraperitoneal injection, with a 10-minute delay before imaging. Mice were then anesthetized using 2.5% isoflurane, and 2D/3D bioluminescence images were acquired using an in vivo imaging system (XENOGEN IVIS SPECTRUM, PerkinElmer, Inc., Waltham, MA). […]

[2] = system: dendritic cells (CD11c^+); test: In vitro activation of dendritic cells (CD40) by silicified tumor cells and doxorubicin-treated cancer cell supernatant; assay type: cell-based; conditions: supernatant from cancer cells treated with doxorubicin 5 ng/mL or 50 ng/mL, with vaccine
Procedure: Dendritic cells were seeded in 12-well plates at a density of 100,000 cells per well. After 24 hours, supernatant from cancer cells treated with doxorubicin (5 ng/mL or 50 ng/mL) was added, with or without 100,000 silicified tumor cells. Cells were labeled with fluorescent antibodies specific for CD40 and CD11c and analyzed using the Attune Flow Cytometer.

Row | SMILES | survival [1] | tumor burden (bioluminescence) [1] | activation of dendritic cells (surface expression of CD40) [2]
1 | N.N.[Cl][Pt][Cl] [Cisplatin, cis-diamineplatinum (II) dichloride] | improved survival | reduced tumor burden in some mice | 
2 | COc1cccc2c1C(=O)c1c(O)c3c(c(O)c1C2=O)C[C@@](O)(C(=O)CO)C[C@@H]3O[C@H]1C[C@H](N)[C@H](O)[C@H](C)O1 [doxorubicin] |  |  | enhanced vaccine-mediated activation of dendritic cells
